Where no end group is shown, it is not given here.
System: HSV-2
Assay type: cell-based, herpes simplex virus type 2 (HSV-2)
Conditions: ELVIS cell infection assay; virus not given

## VCVLAHHFGKEF [VCVLAHHFGKEF (SEQ ID NO:2)]
  antiviral activity in cellular infection assay: high activity

— patent US7741287B2, “Peptides for the treatment of herpes virus infections” (IPF PharmaCeuticals GmbH, priority 2004, dated 2010)
